Data: PubChem BioAssay AID298 (DTP/NCI, 2004)
Values joined by “and” are separate entries in the source; they are usually repeats but may differ in a detail not shown here. Identical values can stand only once. Records with an inconclusive call do not appear.

Tested on: MX-1 breast xenograft, intrarenal, nude mice, tumor weight
Assay: NCI In Vivo Anticancer Drug Screen. Data for tumor model Human Mammary Carcinoma MX-1 Xenograft (intrarenal inoculation) in NU/NU BALB/C (nude) mice
Details: endpoint: mean tumor weight change, higher = larger tumour
How it was run: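 T/C readout: treated-group measurement over vehicle-control measurement, using tumor size or survival in tumor-bearing mice.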

[1] = dose: 150.0 mg/kg/injection, schedule: Q04DX003 (sc), vehicle: saline
[2] = dose: 300.0 mg/kg/injection, schedule: Q04DX003 (sc), vehicle: saline

For `CCN(CC)CC(C)(C)C(=O)/C=C/c1ccc(/C=C/C(=O)C(C)(C)CN(CC)CC)cc1`, the T/C (dose: 60.0 mg/kg/injection, schedule: Q04DX003 (ip), vehicle: saline) was 67 % of control.
In the case of `c1ccc2c(c1)[As]=c1ccccc1=[As]2` (centres undefined), the T/C (dose: 75.0 mg/kg/injection, schedule: Q04DX003 (sc), vehicle: saline) is reported as 108 % of control, the T/C [1] is reported as 87 % of control and the T/C [2] is reported as 99 % of control.
With `CN1C2CCC1C(Br)C(=O)C2` (centres undefined) the T/C (dose: 100.0 mg/kg/injection, schedule: Q04DX003 (ip), vehicle: saline) was 100 % of control and the T/C (dose: 200.0 mg/kg/injection, schedule: Q04DX003 (ip), vehicle: saline) was 66 % of control.
For `C=C(C)/C([O-])=N/[N+](C)(C)CC(O)CCCCCCCCCCCC` (centres undefined), the T/C (dose: 5.0 mg/kg/injection, schedule: Q04DX003 (ip), vehicle: Klucel (hydroxypropylcellulose) (HPC)) was 76 % of control, the T/C (dose: 10.0 mg/kg/injection, schedule: Q04DX003 (ip), vehicle: Klucel (hydroxypropylcellulose) (HPC)) was 111 % of control and the T/C (dose: 20.0 mg/kg/injection, schedule: Q04DX003 (ip), vehicle: Klucel (hydroxypropylcellulose) (HPC)) was 90 % of control and 103 % of control. For the same molecule, the T/C (dose: 40.0 mg/kg/injection, schedule: Q04DX003 (ip), vehicle: Klucel (hydroxypropylcellulose) (HPC)) was 78 % of control, the T/C (dose: 80.0 mg/kg/injection, schedule: Q04DX003 (ip), vehicle: Klucel (hydroxypropylcellulose) (HPC)) was 102 % of control and 118 % of control and the T/C (dose: 320.0 mg/kg/injection, schedule: Q04DX003 (ip), vehicle: Klucel (hydroxypropylcellulose) (HPC)) was 85 % of control.
With `N#CCS(=O)(=O)c1cccc[n+]1[O-]` the T/C (dose: 150.0 mg/kg/injection, schedule: Q04DX003 (ip), vehicle: saline with Tween-80) was 77 % of control and the T/C (dose: 300.0 mg/kg/injection, schedule: Q04DX003 (ip), vehicle: saline with Tween-80) was 67 % of control.
With `CC(=O)C(=O)O.CC(=O)C(=O)O.[NH-]C1CCCCC1[NH-].[Pt+2]` (centres undefined) the T/C (dose: 12.5 mg/kg/injection, schedule: Q04DX003 (sc), vehicle: other) was 72 % of control, the T/C (dose: 25.0 mg/kg/injection, schedule: Q04DX003 (sc), vehicle: other) was 17 % of control and the T/C (dose: 50.0 mg/kg/injection, schedule: Q04DX003 (sc), vehicle: other) was -78 % of control.
`CCN(CC)CCC(=O)OC(C(=O)O[C@H]1C[C@@]2(O)C(OC(=O)c3ccccc3)C3C4(OC(C)=O)COC4C[C@H](O)[C@@]3(C)C(=O)[C@H](OC(C)=O)C(=C1C)C2(C)C)C(NC(=O)c1ccccc1)c1ccccc1` (some centres undefined) was tested, and the T/C (dose: 4.5 mg/kg/injection, schedule: Q01DX009 (ip), vehicle: water) was -100 % of control, the T/C (dose: 9.0 mg/kg/injection, schedule: Q01DX009 (ip), vehicle: water) was -100 % of control and the T/C (dose: 18.0 mg/kg/injection, schedule: Q01DX009 (ip), vehicle: water) was -100 % of control.
In the case of `CN(N=O)C(N)=O`, the T/C (dose: 25.0 mg/kg/injection, schedule: Q04DX003 (sc), vehicle: saline) is reported as 80 % of control, the T/C (dose: 50.0 mg/kg/injection, schedule: Q04DX003 (sc), vehicle: saline with Tween-80) is reported as 9 % of control and the T/C (dose: 50.0 mg/kg/injection, schedule: Q04DX003 (sc), vehicle: saline) is reported as 26 % of control.
For `CN(N=O)C(=O)N[C@@H](C=O)[C@@H](O)[C@H](O)[C@H](O)CO`, the T/C (dose: 37.0 mg/kg/injection, schedule: Q04DX003 (ip), vehicle: other) was 193 % of control, the T/C (dose: 75.0 mg/kg/injection, schedule: Q04DX003 (ip), vehicle: other) was 117 % of control and the T/C (dose: 150.0 mg/kg/injection, schedule: Q04DX003 (ip), vehicle: other) was 70 % of control. The T/C [1] was 63 % of control.
`NCCCNCCCCNC(=O)C(O)NC(=O)CCCCCCN=C(N)N` (centres undefined) was tested, and the T/C (dose: 25.0 mg/kg/injection, schedule: Q04DX003 (ip), vehicle: saline with Tween-80) was 69 % of control.
In the case of `COc1cccc2c1C(=O)c1c(O)c3c(c(O)c1C2=O)CC(O)(C(=O)CO)CC3OC1CC(N)C(O)C(C)O1` (centres undefined), the T/C (dose: 25.0 mg/kg/injection, schedule: Q01DX010 (sc), vehicle: saline) is reported as 41 % of control and the T/C (dose: 50.0 mg/kg/injection, schedule: Q01DX010 (sc), vehicle: saline) is reported as 22 % of control.
For `Cc1nc(N)nc(N)c1N1CCN(c2ccc(C(=O)NC(C(=O)O)C(=O)O)cc2)CC1`, the T/C (dose: 7.5 mg/kg/injection, schedule: Q04DX003 (ip), vehicle: Klucel + Tween-80) was 63 % of control, the T/C (dose: 15.0 mg/kg/injection, schedule: Q04DX003 (ip), vehicle: Klucel + Tween-80) was 76 % of control and the T/C (dose: 30.0 mg/kg/injection, schedule: Q04DX003 (ip), vehicle: Klucel + Tween-80) was 76 % of control. The T/C (dose: 60.0 mg/kg/injection, schedule: Q04DX003 (ip), vehicle: Klucel + Tween-80) was 82 % of control.
`Cc1cc(=NO)cc(C)n1O` was tested, and the T/C (dose: 300.0 mg/kg/injection, schedule: Q04DX003 (sc), vehicle: distilled water + alcohol) was 116 % of control, the T/C (dose: 1200.0 mg/kg/injection, schedule: Q04DX003 (sc), vehicle: distilled water + alcohol) was 90 % of control and the T/C (dose: 2400.0 mg/kg/injection, schedule: Q04DX003 (sc), vehicle: distilled water + alcohol) was 89 % of control.
In the case of `NC(Cc1ccc(N(CCCl)Cc2ccccc2)cc1)C(=O)O` (centres undefined), the T/C (dose: 100.0 mg/kg/injection, schedule: Q04DX003 (ip), vehicle: saline with Tween-80) is reported as 6 % of control and 14 % of control, the T/C (dose: 120.0 mg/kg/injection, schedule: Q04DX003 (ip), vehicle: saline with Tween-80) is reported as 3 % of control and the T/C (dose: 200.0 mg/kg/injection, schedule: Q04DX003 (ip), vehicle: saline with Tween-80) is reported as 7 % of control and -15 % of control. The T/C (dose: 333.33 mg/kg/injection, schedule: Q04DX003 (ip), vehicle: saline with Tween-80) was -90 % of control.
For `OCC1OC(n2cnc3c(=S)nc[nH]c32)C(O)C1O` (centres undefined), the T/C [2] was 86 % of control, the T/C (dose: 600.0 mg/kg/injection, schedule: Q04DX003 (sc), vehicle: saline) was 58 % of control and the T/C (dose: 1200.0 mg/kg/injection, schedule: Q04DX003 (sc), vehicle: saline) was 59 % of control and 75 % of control. For the same molecule, the T/C (dose: 1600.0 mg/kg/injection, schedule: Q04DX003 (sc), vehicle: saline) was 49 % of control, the T/C (dose: 2000.0 mg/kg/injection, schedule: Q04DX003 (sc), vehicle: saline) was 65 % of control and the T/C (dose: 2400.0 mg/kg/injection, schedule: Q04DX003 (sc), vehicle: saline) was 23 % of control and 39 % of control.
`Cc1ccc(S(=O)(=O)NC(=O)C2C(=O)CC3(CCCCC3)CC2=O)cc1` was tested, and the T/C (dose: 300.0 mg/kg/injection, schedule: Q04DX003 (sc), vehicle: Klucel (hydroxypropylcellulose) (HPC)) was 81 % of control, the T/C (dose: 600.0 mg/kg/injection, schedule: Q04DX003 (sc), vehicle: Klucel (hydroxypropylcellulose) (HPC)) was 95 % of control and the T/C (dose: 1200.0 mg/kg/injection, schedule: Q04DX003 (sc), vehicle: Klucel (hydroxypropylcellulose) (HPC)) was 121 % of control. The T/C (dose: 2400.0 mg/kg/injection, schedule: Q04DX003 (sc), vehicle: Klucel (hydroxypropylcellulose) (HPC)) was 117 % of control.
In the case of `COC(=O)C12OCC34C(CC5C(C)C6=CC(=O)OC6=CC5(C)C3C(O)C1O)OC(=O)C(O)C24` (centres undefined), the T/C (dose: 0.5 mg/kg/injection, schedule: Q04DX003 (ip), vehicle: Klucel (hydroxypropylcellulose) (HPC)) is reported as 75 % of control, the T/C (dose: 1.0 mg/kg/injection, schedule: Q04DX003 (ip), vehicle: Klucel (hydroxypropylcellulose) (HPC)) is reported as 77 % of control and the T/C (dose: 2.0 mg/kg/injection, schedule: Q04DX003 (ip), vehicle: Klucel (hydroxypropylcellulose) (HPC)) is reported as 69 % of control. The T/C (dose: 4.0 mg/kg/injection, schedule: Q04DX003 (ip), vehicle: Klucel (hydroxypropylcellulose) (HPC)) was 45 % of control.
For `CC[C@]1(O)C[C@H]2CN(CCc3c([nH]c4ccccc34)[C@@](C(=O)OC)(c3cc4c(cc3OC)N(C)[C@H]3[C@@](O)(C(=O)OC)[C@H](OC(C)=O)[C@]5(CC)C=CCN6CC[C@]43[C@@H]65)C2)C1`, the T/C (dose: 0.25 mg/kg/injection, schedule: Q01DX010 (sc), vehicle: saline) was 43 % of control and the T/C (dose: 0.5 mg/kg/injection, schedule: Q01DX010 (sc), vehicle: saline) was 18 % of control.
With `CC[C@@H](C)[C@H]([C@H](CC(=O)N1CCC[C@@H]1[C@@H](OC)[C@H](C)C(=O)N[C@H](Cc1ccccc1)c1nccs1)OC)N(C)C(=O)[C@H](NC(=O)[C@@H](C(C)C)N(C)C)C(C)C` the T/C (dose: 13.0 micrograms/kg/injection, schedule: Q04DX003 (ip), vehicle: saline + alcohol) was 61 % of control, the T/C (dose: 26.0 micrograms/kg/injection, schedule: Q04DX003 (ip), vehicle: saline + alcohol) was 50 % of control and the T/C (dose: 52.0 micrograms/kg/injection, schedule: Q04DX003 (ip), vehicle: saline + alcohol) was 14 % of control.
With `O=C(Nc1cccc(Cl)c1)ON1C(=O)C2C(C1=O)C1(Cl)C(Cl)C(Cl)C2(Cl)C1(Cl)Cl` (centres undefined) the T/C (dose: 300.0 mg/kg/injection, schedule: Q04DX003 (sc), vehicle: saline with Tween-80) was 91 % of control, the T/C (dose: 600.0 mg/kg/injection, schedule: Q04DX003 (sc), vehicle: saline with Tween-80) was 100 % of control and the T/C (dose: 1200.0 mg/kg/injection, schedule: Q04DX003 (sc), vehicle: saline with Tween-80) was 91 % of control. The T/C (dose: 2400.0 mg/kg/injection, schedule: Q04DX003 (sc), vehicle: saline with Tween-80) was 114 % of control.
